Measured values from US20210093679A1, “[…] MICROBES AND USES THEREOF” (priority 2018, published 2021).

System: female Balb/cJ mice
Assay: Mouse model of xenobiotic metabolism (irinotecan-induced diarrhea)
Conditions: irinotecan 50 mg/kg IP once daily for 10 days
Protocol: On day one and everyday thereafter for 10 days, female Balb/cJ mice (The Jackson Laboratory, Farmington, Conn.) were administered irinotecan (50 mg/kg) (Selleckchem, Houston, Tex.) via intraperitoneal (IP) injection once daily for the length of the experiment. On day one and every day thereafter for 10 days, mice were also administered streptomycin (5 mg/ml) (Sigma-Aldrich, St. Louis, Mo.) ad libidum via their drinking water in order to kill proteobacteria in the mouse GI tract.
On day two, 0.1 ml of engineered bacteria in PBS at a concentration of 10^10 colony forming units per mL were administered to the mice once via oral gavage.
On days 3, 7, 8, 9, and 10, the presence of the bacteria in the mouse GI tract was confirmed by collecting fecal samples from the mice, and analyzing the fecal samples for the presence of engineered bacteria. The fecal samples were homogenized in PBS, and inoculated onto agar plates containing streptomycin (500 μg/ml). These agar plates inhibited the growth of other bacteria, and only allowed the engineered bacteria to grow. Colonies were quantified and tallied to determine the amount of bacteria that were alive in the mouse GI tract.
Diarrhea indicated whether the xenobiotic metabolism of the irinotecan caused GI toxicity.

With CCc1c2c(nc3ccc(OC(=O)N4CCC(N5CCCCC5)CC4)cc13)-c1cc3c(c(=O)n1C2)COC(=O)[C@]3(O)CC [Irinotecan, irinotecan] the “Mice with diarrhea/total mice in test group” value (streptomycin in drinking water, bacteria once via oral gavage on day two, observed days 6 through 10) was 9/10 and the “GI toxicity / diarrhea from irinotecan, in words” value (with or without engineered bacteria) was “Nine of the ten mice that did not receive engineered bacteria experienced GI toxicity”.
